Reference: US20210015092A1, “STABILIZATION OF WHOLE BLOOD AT ROOM TEMPERATURE” (Roche Diagnostics Operations, Inc., priority 2014, published 2021)

Key:
MDA-MB-468 cells [1] = assay: Quantification of RNA from MDA-MB-468 cells isolated after 72 h sample storage; assay type: cell-based, human; conditions: 72 hours at room temperature, GCK DNA as reference, two donors
Experimental: MDA-MB-468 cells were spiked into blood samples obtained from two healthy individuals at 14.4×10^6 cells/ml. From each donor four samples were prepared. […] Aliquots from these samples were processed immediately after set up, other aliquots were processed after storage at room temperature for 72 hours. MDA-MB-468 cells were isolated from blood by capturing with BreastSelectBeads from Adnagen Cat. No.: T1-508 with 1,000 μl aliquots of sample material according to the protocol recommended by the manufacturer.
The bead captured purified cells were resuspended in 1,000 μl PBS. With 200 μl aliquots RNA was isolated using the MagNA Pure LC DNA Isolation Kit—Large volume Cat No 03310515001 using the Program “DNA LV Blood_20_200” and an elution volume of 100 μl.
The RNA was transcribed into cDNA using Transcriptor First Strand cDNA Synthesis Kit Cat. No: 04897030001 in reactions of 70 μl volume, each reaction containing 12.5 μl of isolated nucleic acid. PCR was peformed with the with the LightCycler 480 Probes Master in a LightCycler 480 instrument in 20 μl reactions containing 5 μl of the cDNA samples. […]
To quantify the changes in expression level of the RNA target tested, the relative quantification method of Livak and Schmittgen was used (Livak K. J. and Schmittgen T. D., Methods 2001, 25(4) 402-408). […]

MDA-MB-468 cells [2] = assay: Isolation of viable cells after sample storage for 48 hours, Trypan blue exclusion; assay type: cell-based, human; conditions: 48 hours at room temperature, two donors
Experimental: MDA-MB-468 cells were spiked into blood samples obtained from healthy individuals to result in a final concentration of 300,000 spiked cells/ml blood. The samples were processed either immediately or after storage at room temperature for 48 hours.
Immediately after sample set up and 48 hours later nucleated cells were enriched by erythrocyte lysis. […] The cells were sedimented by centrifugation at 200×g for 15 min.
From these samples the MDA-MB-468 cells were isolated using CD326 (EpCAM) Microparticles from Miltenyi (Cat No 130-061-101), MS columns and the MACS separator system (Milteny Cat. Nos. 130-042-201, 130-042-102) making use of the protocol recommended by the manufacturer.
The enriched cells were suspended in 300 μl of RPMI medium.
The viability of the cells was tested with the Trypan blue exclusion method. 10 μl of each sample was mixed with 10 μl of Trypan blue (Sigma-Aldrich T8154). The number of MDA-MB-468 cells excluding the dye was counted in a Neubauer chamber. The yield of viable cells was calculated using the cell number spiked into the blood samples as 100%.

MDA-MB-468 cells [3] = conditions: blood stored 48 hours at room temperature; cell index for 101 hours
Experimental: MDA-MB-468 cells treated and isolated as described in Example 6 were seeded into the wells of an E-Plate 96-well device (Roche Applied Science, Cat. No. 06472451001, Roche Diagnostics GmbH Mannheim, Germany) for the Real-Time Cell Analyzer (RTCA) MP (xCELLigence system). 50 μl aliquots of cells were seeded into wells containing 50 μl of RPMI medium. Duplicates were used for analysis. The E-Plate was incubated over night at 37° C. in an incubator to allow attachment of MDA-MB-468 cells to the bottom of the E-Plate. In order to remove contaminating blood derived cells the medium was removed and cells attached to the culture plate were washed 3 times with PBS. 150 μl of fresh RPMI medium was added per well and the E-Plate transferred to the Real-Time Cell Analyzer. Cell index was measured once per hour for 101 hours.

MDA-MB-468 cells [4] = assay: Preservation of cellular proteins: anti-CK5/8 immunostaining of MDA-MB-468 cells spiked into blood; assay type: cell-based, human; conditions: EDTA blood, 48 hours at room temperature; Sivelestat 10 μg/ml, Pefabloc SC 1 mM, SkQ1 100 nM, Mito Q 100 nM, glutathione 3 mM; versus EDTA without additive
Experimental: Preservation of Cellular Proteins Suspended cells of MDA-MB-468, a human breast cancer cell line were spiked into blood samples obtained from healthy individuals to result in 100,000 spiked cells per ml blood. The samples were processed either immediately or after storage at room temperature for 48 hours.
Nucleated cells were enriched by erythrocytes lysis. […] After centrifugation at 200×g for 15 min, the supernatant was removed and the pellet was resuspended in 250 μl of lysis buffer. […] The cells were sedimented by centrifugation at 200×g for 15 min.
For each sample a volume of 50 μl of the cell suspension was spotted on a glass slide and air-dried. The slides were fixed in ice cold acetone for 10 min, washed with PBS twice and immersed in labeling mixture containing anti-cytokeratine K5/K8-FITC labeled antibody diluted 1:50 in PBS (cytokeratine=CK). After an incubation for 30 min in the dark the supernatant was removed. DAPI-containing mounting medium was added, the spots covered with cover slips and after a further incubation for 20 min analyzed on a Zeiss Axio Observer Microscope. The total number of nucleated cells and the CK 5/8 positive cells were analyzed with the Assay Builder Software from Zeiss.
MDA-MB-468 cells were spiked into blood samples obtained from healthy individuals to result in a concentration of 100,000 spiked cells/ml blood. The samples were processed either immediately or after storage at room temperature for 48 hours. […] Sample 3 was additionally supplemented with the mitochondria targeted antioxidant SS-31 (1 μM), sample 4 with glutathione (0.75 mM). Nucleated cells were enriched by erythrocytes lysis and processed as described in Example 1.

SMILES	percentage of MDA-MB-468 cells detected by immunostaining with Anti-CK5/8 (FIG. 1) (MDA-MB-468 cells [4])	other results
O=C(O)CN(CCN(CC(=O)O)CC(=O)O)CC(=O)O [EDTA]	–	change of RNA levels of isolated MDA-MB-468 cells (FIG. 4) (MDA-MB-468 cells [1]): strong decline in RNA levels; cell viability after storage, in words (MDA-MB-468 cells [2]): negatively affected; cell growth in culture of cells isolated from stored blood (FIG. 5) (MDA-MB-468 cells [3]): not culturable anymore
COC1=C(OC)C(=O)C(CCCCCCCCCC[P+](c2ccccc2)(c2ccccc2)c2ccccc2)=C(C)C1=O [MitoQ, (10-(2,5-dihydroxy-3,4-dimethoxy-6-methylphenyl)decyl) triphenylphosphonium and (10-(4,5-dimethoxy-2-methyl-3,6-dioxocyclohexa-1,4-dienyl)decyl) triphenylphosphonium]	Particular positive effects	–
Cl.NCCc1ccc(S(=O)(=O)F)cc1 [Pefabloc SC, 4-(2-aminoethyl) benzenesulfonyl fluoride hydrochloride]	higher signals than the control sample without additive	–
CC(C)(C)C(=O)Oc1ccc(S(=O)(=O)Nc2ccccc2C(=O)NCC(=O)O)cc1 [Sivelestat]	higher signals than the control sample without additive	–
CC1=C(C)C(=O)C(CCCCCCCCCC[P+](c2ccccc2)(c2ccccc2)c2ccccc2)=CC1=O [SkQ1, 10-(6′-plastoquinonyl) decyltriphenylphosphonium]	Particular positive effects	–
N[C@@H](CCC(=O)N[C@@H](CS)C(=O)NCC(=O)O)C(=O)O [glutathione]	further positive effect	–
